Data set [1] is described as follows: Saturation solubility of active ingredients in 1,3-bis(1-pyrrolidonyl)butane as solvent (Example 5). It is filed as physicochemical. The following applies: 22 °C, organic solvent or mixture, thermodynamic from solid, stirred at room temperature for 72 hours, filtrate by UV photometry, read-out: maximum solubility at 22° C. The protocol:
It was stirred at room temperature for 72 hours.

Data set [2] is described as follows: Maximum soluble amount of active ingredient in cosolvent:water mixtures and phosphate buffer (Example 6). The following applies: for cosolvent quality mixed with water compared with propylene glycol: for hydrophilic active ingredients such as paracetamol, theophylline or trimethoprim.
Experimental: To 20 ml 1,3-bis(1-pyrrolidonyl)butane was added the active ingredient in an amount which is above the amount of this active ingredient able to dissolve in this volume. It was stirred at room temperature for 72 hours. As a rule, this time ensured that the saturation solubility in the medium was reached. After subsequent filtration, the content of active ingredient in the filtrate was determined by UV photometry.
e) 1,2-Propylene glycol (1,2-PG):water (1:1)
f) 1,2-Propylene glycol (1,2-PG):water (1:3)
The conditions of data set [3]: cited from earlier work.
Where [4] appears, read: 25% 1,2-PG (1,2-propylene glycol:water 1:3), 20 ml.
Setting [5] is: 25% DHVC (1,3-bis(1-caprolactamyl)butane:water 1:3), 20 ml.
Where [6] appears, read: 25% DHVP (1,3-bis(1-pyrrolidonyl)butane:water 1:3), 20 ml.
The mark [7] stands for this setting: 50% 1,2-PG (1,2-propylene glycol:water 1:1), 20 ml.
[8] abbreviates: 50% DHVC (1,3-bis(1-caprolactamyl)butane:water 1:1), 20 ml.
[9] abbreviates: 50% DHVP (1,3-bis(1-pyrrolidonyl)butane:water 1:1), 20 ml.
Where [10] appears, read: in 20 ml 25% 1,2-PG (1,2-propylene glycol:water 1:3).
The mark [11] stands for this setting: in 20 ml 25% DHVC (1,3-bis(1-caprolactamyl)butane:water 1:3).
Where [12] appears, read: in 20 ml 25% DHVP (1,3-bis(1-pyrrolidonyl)butane:water 1:3).
Setting [13] is: in 20 ml 50% 1,2-PG (1,2-propylene glycol:water 1:1).
The mark [14] stands for this setting: in 20 ml 50% DHVC (1,3-bis(1-caprolactamyl)butane:water 1:1).
Setting [15] is: in 20 ml 50% DHVP (1,3-bis(1-pyrrolidonyl)butane:water 1:1).
Setting [16] is: in 20 ml phosphate buffer pH 7.0.

SMILES strings stand for the structures. Converted amounts (≈) assume the structure as drawn.

Consider ten molecules from patent US6497886B1, “1,3-bis-(N-lactamyl) propane and the pharmaceutical and cosmetic use thereof” (BASF Aktiengesellschaft, priority 1996, dated 2002).

For the molecule `Nc1ccc(S(=O)(=O)Nc2nccs2)cc1` [Sulfathiazole], the solubility at 72 h in data set [1] was found to be 200 mg/mL (≈ 783 mM).

`COc1cc(Cc2cnc(N)nc2N)cc(OC)c1OC` [Trimethoprim]: in data set [1], the solubility at 72 h was 150 mg/mL (≈ 517 mM). For the same molecule, the “Solubility [%]” value in data set [2] (setting [4]) is 0.28%; in data set [2] (setting [5]), 1.69%; in data set [2] (setting [6]) it was 1.03%; in data set [2] (setting [7]) it was 0.89%; in data set [2] (setting [8]), 5.09%; in data set [2] (setting [9]), 3.55%. In addition, the “Solubility [%]” value in data set [2] (Phosphate buffer pH 7.0, 20 ml) was determined as 0.12%. The “Dissolved substance” value was 0.0558 g in data set [2] (setting [10]); 0.3382 g in data set [2] (setting [11]); 0.2063 g in data set [2] (setting [12]); 0.1785 g in data set [2] (setting [13]); 1.0170 g in data set [2] (setting [14]); 0.7097 g in data set [2] (setting [15]). The “Dissolved substance” value in data set [2] (setting [16]) stood at 0.0245 g.

In the case of `CC(CCN1CCCC1=O)N1CCCC1=O` (stereo not drawn) [Example 2, 1,3-Bis-(1-pyrrolidonyl)Butane], the “cosolvent quality mixed with water compared with propylene glycol” value in data set [2] is “better cosolvents”.

With `CC(=O)Nc1ccc(O)cc1` [Paracetamol], the solubility at 72 h in data set [1] amounted to 250 mg/mL (≈ 1650 mM). Further, the “Solubility [%]” value is recorded as 2.77% in data set [2] (setting [4]); 10.62% in data set [2] (setting [6]); 6.46% in data set [2] (setting [7]); 25.15% in data set [2] (setting [9]); 1.36% in data set [2] (Phosphate buffer pH 7.0, 20 ml). Further, the “Dissolved substance” value in data set [2] (setting [10]) is 0.5537 g; in data set [2] (setting [12]), 2.1244 g; in data set [2] (setting [13]) it was 1.2914 g; in data set [2] (setting [15]), 5.0298 g; in data set [2] (setting [16]) it was 0.2718 g.

On to `CC(CCN1CCCCCC1=O)N1CCCCCC1=O` (stereo not drawn) [Example 4, 1,3-Bis-(1-caprolactamyl)Butane], for which the “cosolvent quality mixed with water compared with propylene glycol” value in data set [2] is given as “better cosolvents”.

Take `C[C@]12C=CC(=O)C=C1CC[C@@H]1[C@@H]2C(=O)C[C@@]2(C)[C@H]1CC[C@]2(O)C(=O)CO` [Prednisone]: the solubility at 72 h in data set [1] is 200 mg/mL (≈ 558 mM).

As to `Cn1c(=O)c2[nH]cnc2n(C)c1=O` [theophylline], the “Solubility [%]” value in data set [2] (setting [4]) was 1.00%; in data set [2] (setting [5]) it was 1.55%; in data set [2] (setting [6]), 1.30%; in data set [2] (setting [7]) it was 1.54%; in data set [2] (setting [8]) it was 2.74%; in data set [2] (setting [9]), 1.85%. Also, the “Solubility [%]” value in data set [2] (Phosphate buffer pH 7.0, 20 ml) came to 0.59%. Also, the “Dissolved substance” value is on record as 0.1998 g in data set [2] (setting [10]); 0.3105 g in data set [2] (setting [11]); 0.2609 g in data set [2] (setting [12]); 0.3083 g in data set [2] (setting [13]); 0.5476 g in data set [2] (setting [14]); 0.3703 g in data set [2] (setting [15]). Moreover, in data set [2] (setting [16]), the “Dissolved substance” value is given as 0.1172 g.

With `OCC(O)CO` [glycerol], the “miscibility/solubility with fixed oils” value in data set [3] was “not soluble”. Besides, the miscibility with water entry in data set [3] (water) is given as “miscible”.

For `CCS(=O)(=O)Oc1ccc2c(C)c(C)c(=O)oc2c1` [Esuprone], the solubility at 72 h in data set [1] was determined as 190 mg/mL (≈ 673 mM).

For `CC(O)CO` (stereo not drawn) [propylene glycol], the “miscibility/solubility with fixed oils” value in data set [3] is reported as “immiscible”.

As usually defined, the solubility is the concentration that dissolves in the medium under given conditions.
